According to patent publication US10266568B2, “Cyclic citrullinated peptide, rheumatoid arthritis diagnosis composition including the same, rheumatoid arthritis diagnosis method using the peptide or the composition, and method of screening diagnostic marker for rheumatoid arthritis” (KOREA INSTITUTE OF SCIENCE AND TECHNOLOGY, priority 2015, dated 2019):
Positions of bridges follow the written chain, without caps; N, C: chain ends. Non-standard residues stand in square brackets, D forms with d. No end group written: not given here. Cit = NC(=O)NCCC[C@H](N)C(=O)O; Ahx = NCCCCCC(=O)O

Test system: autoimmune antibodies (anti-CCP antibody) in serum samples
Experiment: Sandwich ELISA of patient serum samples on peptide-coated microplates (absorbance at 450 nm)
Type: binding, human
Conditions: diluted 200 times; for Average (absorbance) OA: OA patient serum samples (15 subjects); for Average (absorbance) RA: RA patient serum samples (30 subjects), peptide coated at about 10 μg/ml; for Average (absorbance) SLE: SLE patient serum samples (25 subjects); for Average (absorbance) Normal: normal control group serum samples (25 subjects)
Protocol: Sandwich enzyme linked immunosorbent assay (ELISA) using the peptides of Table 1 were performed on the samples from 4 test groups. Serum samples of RA patients (30 subjects), OA patients (15 subjects), SLE patients (25 subjects), and control group samples (25 normal subjects) were prepared.
Each of the prepared peptides of Table 1 was diluted with PBS to about 10 μg/ml, added by about 100 μl to a microplate, and then coated at about 4° C. overnight, followed by adding about 200 μl of BSA solution (10 mg/mL) to each well of the peptide coated microplate to block at room temperature for about 1 hour, and washing the microplate with a PBS including about 0.1% of Tween-20 three times to use the microplate it in this assay. The patient samples and normal control group sample were diluted by 200 times and added triplet by about 100 μl to the wells of the peptide-coated microplate. After being cultured at room temperature for about 1 hour, the resulting microplate was washed three times in the same manner as the above-described washing. To detect autoimmune antibodies in the samples, 100 μl of an anti-human IgG antibody solution ([…]) was added to each cell of the microplate and incubated at room temperature for about 1 hour, followed by washing three times in the same manner as the above-described washing. After 100 μl of a TMB substrate solution was added thereto and reacted at room temperature for about 30 minutes, finally 100 μl of a 2M sulfuric acid solution was added as a stop solution to terminate the reaction, followed by absorbance measurement at a wavelength of about 450 nm using a microplate reader.
Autoimmune antibody levels in the blood samples of normal patients and various types of arthritis patients were analyzed by enzyme linked immunosorbent assay (ELISA) using the peptides of SEQ ID NOS.
Autoimmune antibody levels in the blood samples of normal patients and various arthritis patients were analyzed by ELISA using the peptides of SEQ ID NOS.

| Substance | Average (absorbance) OA | Average (absorbance) RA | Average (absorbance) SLE | Average (absorbance) Normal |
| --- | --- | --- | --- | --- |
| HSH15: HSHQESTXGRSRGSG; CCP with disulfide bond-forming cysteine substituted with serine, X citrulline (HSHQEST[Cit]GRSRGSG) | 0.2277 | 0.1942 | 0.2704 | 0.1067 |
| CCP10P: HCHQESTXGPSRGCG; CCP with 10th amino acid arginine substituted by proline (HCHQEST[Cit]GPSRGCG; disulfide 2-14) | – | – | – | 0.0994 |
| CCPPAP: HCHQESTXGPAPGCG; CCP with 10th, 11th, 12th amino acids substituted by proline, alanine, proline (HCHQEST[Cit]GPAPGCG; disulfide 2-14) | 0.2591 | – | 0.3287 | 0.1140 |
| HSH17: HSHQESTXGRSRGSGZZ; aminocaproic acid (Z) added to C-terminal of HSH15 (HSHQEST[Cit]GRSRGSG[Ahx][Ahx]) | – | – | – | 0.1412 |
| CCP: cyclic citrullinated peptide HCHQESTXGRSRGCG, X citrulline (HCHQEST[Cit]GRSRGCG; disulfide 2-14) [reference compound] | 0.2314 | 0.2522 | 0.2347 | 0.0874 |
| ZZH19: ZZHSHQESTXGRSRGSGZZ; aminocaproic acid (Z) added to N- and C-terminals of HSH15 ([Ahx][Ahx]HSHQEST[Cit]GRSRGSG[Ahx][Ahx]) | – | – | – | 0.1609 |
| CCP11A: HCHQESTXGRARGCG; CCP with 11th amino acid serine substituted by alanine (HCHQEST[Cit]GRARGCG; disulfide 2-14) | – | – | 0.3321 | 0.1125 |
| ZZH17: ZZHSHQESTXGRSRGSG; aminocaproic acid (Z) added to N-terminal of HSH15 ([Ahx][Ahx]HSHQEST[Cit]GRSRGSG) | – | – | 0.2738 | 0.1102 |
| CCP12P: HCHQESTXGRSPGCG; CCP with 12th amino acid substituted by proline (HCHQEST[Cit]GRSPGCG; disulfide 2-14) | 0.2847 | – | 0.3619 | 0.1250 |
| RF: rheumatoid factor peptide EGLHNHY (listed as Homo sapiens) [reference compound] | 0.2791 | 0.2534 | 0.3417 | 0.1484 |
